{"source": "patent US20070276032A1", "about": "“Use of 8-Prenylnaringenin for Hormone Replacement Therapy” (priority 2003, published 2007)", "key": {"ovariectomized rats [1]": {"test_system": "ovariectomized rats", "test": "Ex vivo BMD (pQCT) of proximal tibia, 2S(−) 8-PN in ovariectomized rats (Example 3)", "design": "species or system Sprague-Dawley rats", "details": "OVX rats; for Total BMD, MEAN / Total BMD, MEDIAN / Trabecular BMD, MEAN / Trabecular BMD, MEDIAN: left proximal tibia ex vivo, s.c. 4 weeks", "method": "(§1) The aim of the study was to examine bone and uterine effects of a 4-week treatment with 2S(−) 8-Prenylnaringenin (8-PN) in 3-month-old ovariectomized rats. […] At the end of the study, uterine weight and ex vivo bone mineral density (BMD) of tibia were measured.\n(§2) A total of 30 female 13-14-week-old Sprague-Dawley rats were used in the study. The animals were randomized into 5 groups, with 6 rats/group. Group 1 was sham-operated (SHAM) and groups 2-5 were ovariectomized (OVX).\n(§3) Treatments with the vehicle or test substance started on the day following operation. […] The animals were sacrificed one day after the last dosing. At the end of the study, left tibiae were excised for ex vivo BMD measurement (pQCT) at proximal tibia and uteri were excised for the determination of absolute and relative weights. In addition, samples for the determination of 2S(−)8-Prenylnaringenin concentration were taken from all dosing solutions on the day when they were prepared and on the last day of use. The data of body weights, relative uterine weights and BMD were analyzed with one-way analysis of variance.\nBone mineral density measurement was carried out by pQCT (XCT-960A, Stratec, Germany). The bone specimens were thawed before measurement. Six 1 mm-thick sections of the proximal tibia (2 mm below the epiphyseal growth plate) were scanned at 0.5 mm intervals using a voxel size of 0.148 mm. Total and trabecular BMD (mg/cm^3) were measured. After bone densitometry, the specimens were wrapped back to saline saturated gauzes and stored at −20° C."}, "ovariectomized rats [2]": {"test_system": "ovariectomized rats", "test": "Relative uterine weight, 2S(−) 8-PN in ovariectomized rats (Example 3)", "type": "in vivo, Sprague-Dawley rats", "details": "OVX rats; for Relative uterus weight, Mean: s.c. 7 times a week", "method": "as §1, §2, §3\nRelative uterine weight was calculated as percentage of body weight"}, "[3]": {"test": "Body weight, 2S(−) 8-PN in ovariectomized rats (Example 3)", "type": "in vivo, Sprague-Dawley rats", "details": "OVX rats, s.c. once a day, 7 times a week, 4 weeks", "from_the_text": "as §2\nThe mean body weight of the animals was 271 g (SD 9, SE 2) before operation. Treatments with the vehicle or test substance started on the day following operation. The animals in the SHAM group received the vehicle, 30% hydroxypropyl-β-cyclodextrin s.c., and in the OVX groups either the vehicle or 2S(−) 8-PN at nominal doses of 0.67 mg/kg/d, 1.77 mg/kg/d or 18 mg/kg/d s.c. Treatments continued for 4 weeks; the dosing frequency was seven times a week. The animals were sacrificed one day after the last dosing. At the end of the study, left tibiae were excised for ex vivo BMD measurement (pQCT) at proximal tibia and uteri were excised for the determination of absolute and relative weights. In addition, samples for the determination of 2S(−)8-Prenylnaringenin concentration were taken from all dosing solutions on the day when they were prepared and on the last day of use. The data of body weights, relative uterine weights and BMD were analyzed with one-way analysis of variance."}, "ovariectomized rats [4]": {"test_system": "ovariectomized rats", "test": "Uterus histology, luminal epithelium cell height in ovariectomized rats (Example 3)", "type": "in vivo, Sprague-Dawley rats", "details": "ovariectomized rat; at 1.77 mg/kg and 18 mg/kg", "method": "A post-study histological examination was performed. The formalin fixed uteri were embedded in paraffin, cut into 5 μm transverse sections and were stained with haematoxylin eosin. The sections were then evaluated quantitatively for luminal epithelium cell height."}, "ovariectomized rats [5]": {"test_system": "ovariectomized rats", "test": "Relative uterus weight, 8-PN racemic, 2S(−) 8-PN and estradiol hemihydrate in ovariectomized rats (Example 4)", "type": "in vivo, Sprague-Dawley rats", "details": "OVX rats", "method": "(§4) The aim of the study was to directly compare the effects of Prenylnaringenin (racemate) and 2S(−) 8-Prenylnaringenin to the effects of estradiol hemihydrate on bone mineral density and uterine weight on 3-month-old ovariectomized rats using identical formulations. In addition, the effects of estradiolhemihydrate in two vehicles (oily, aqueous) were examined for influence of formulations. The substances were administered subcutaneously(s.c.) seven days a week beginning the day after ovariectomy. At the end of the study, uterine weight and bone mineral density (BMD) of tibia were measured.\n(§5) Forty-one female Sprague-Dawley rats, 12-14 weeks of age were randomized into six groups, 6-8 animals in each. Five groups were ovariectomized (OVX) and one group was sham-operated (SHAM). Treatments started on the day following operation and continued for 28 days. The animals were treated s.c. once a day seven times a week as follows. Group 1 (SHAM vehicle group) and group 2 (OVX vehicle group) were given the vehicle 30% hydroxypropyl-β-cyclodextrin (HP-β-CD). Groups 3 and 4 were administered 4 μg/kg/d of estradiol hemihydrate in vehicle benzyl benzoate/ricinus oil (B/R) and in vehicle HP-β-CD, respectively. Groups 5 and 6 were given 20 mg/kg/d of 2S(−)8-Prenylnaringenin and racemic 8-Prenylnaringenin, respectively, both in vehicle HP-β-CD. At the end of the study, left tibiae were excised for the ex vivo BMD […] were taken from all dosing solutions on the first and last day of use.\n(§6) Vehicle 1 (used in the groups 1 and 2): 30% hydroxypropyl-β-cyclodextrin and 0.3% NaCl (w/v), 5% ethanol (v/v) in Aqua sterilisata, pH 7.4.\n(§7) Vehicle 2 (used when preparing dosing solutions of the groups 4, 5 and 6): 30% hydroxypropyl-β-cyclodextrin and 0.3% NaCl (w/v) in Aqua sterilisata, pH 7.4.\n(§8) Vehicle 3 (used when preparing a dosing solution of the group 3): benzyl benzoate/ricinus oil (B/R) 1+4, v/v."}, "[6]": {"test": "Body weight, 8-PN racemic, 2S(−) 8-PN and estradiol hemihydrate in ovariectomized rats (Example 4)", "type": "in vivo, Sprague-Dawley rats", "details": "OVX rats; s.c. once a day, 28 days; 20 mg/kg/d in HP-β-CD", "method": "as §4, §5, §6, §7, §8"}, "[7]": {"details": "dose range 0.67-18 mg/kg/d s.c., 4 weeks"}, "[8]": {"details": "s.c. 28 days, 20 mg/kg/d in HP-β-CD, calculated as percentage of body weight"}}, "data": [{"smiles": "CC(C)=CCc1c(O)cc(O)c2c1O[C@H](c1ccc(O)cc1)CC2=O", "note": "[2S(−)8-PN, 2S(−) 8-Prenylnaringenin]", "values": [{"measurement": "effect on OVX-induced decreases in BMD at the highest dose", "setting": "ovariectomized rats [1]; 18 mg/kg/d s.c., 4 weeks", "value": "completely inhibited OVX-induced effects"}, {"measurement": "effect on OVX-induced decreases in total and trabecular BMD", "setting": "ovariectomized rats [1]; [7]", "value": "prevented the OVX-induced decreases in both total and trabecular BMD at the proximal tibial metaphysis dose dependently"}, {"measurement": "Total BMD, MEAN", "setting": "ovariectomized rats [1]; 0.67 mg/kg/d", "value": 561.1, "unit": "mg/mL"}, {"measurement": "Total BMD, MEDIAN", "setting": "ovariectomized rats [1]; 0.67 mg/kg/d", "value": 569.2, "unit": "mg/mL"}, {"measurement": "Trabecular BMD, MEAN", "setting": "ovariectomized rats [1]; 0.67 mg/kg/d", "value": 319.1, "unit": "mg/mL"}, {"measurement": "Trabecular BMD, MEDIAN", "setting": "ovariectomized rats [1]; 0.67 mg/kg/d", "value": 318.7, "unit": "mg/mL"}, {"measurement": "Total BMD, MEAN", "setting": "ovariectomized rats [1]; 1.77 mg/kg/d", "value": 581.5, "unit": "mg/mL"}, {"measurement": "Total BMD, MEDIAN", "setting": "ovariectomized rats [1]; 1.77 mg/kg/d", "value": 568.1, "unit": "mg/mL"}, {"measurement": "Trabecular BMD, MEAN", "setting": "ovariectomized rats [1]; 1.77 mg/kg/d", "value": 330.9, "unit": "mg/mL"}, {"measurement": "Trabecular BMD, MEDIAN", "setting": "ovariectomized rats [1]; 1.77 mg/kg/d", "value": 329.4, "unit": "mg/mL"}, {"measurement": "Total BMD, MEAN", "setting": "ovariectomized rats [1]; 18 mg/kg/d", "value": 636.5, "unit": "mg/mL"}, {"measurement": "Total BMD, MEDIAN", "setting": "ovariectomized rats [1]; 18 mg/kg/d", "value": 635.4, "unit": "mg/mL"}, {"measurement": "Trabecular BMD, MEAN", "setting": "ovariectomized rats [1]; 18 mg/kg/d", "value": 411.8, "unit": "mg/mL"}, {"measurement": "Trabecular BMD, MEDIAN", "setting": "ovariectomized rats [1]; 18 mg/kg/d", "value": 396.6, "unit": "mg/mL"}, {"measurement": "effect on the uterus compared with 17β-estradiol", "setting": "ovariectomized rats [2]; at the same bone effective dose", "value": "much lower effect on the uterus than 17β-estradiol at the same bone effective dose"}, {"measurement": "increase of relative uterine weight compared to ovariectomy", "setting": "ovariectomized rats [2]; [7]", "value": "less than twofold"}, {"measurement": "relative uterine weights", "setting": "ovariectomized rats [2]; dose range 0.67-18 mg/kg/d, SHAM group 0.194%", "value": "0.054-0.065%"}, {"measurement": "Relative uterus weight, Mean", "setting": "ovariectomized rats [2]; 4 weeks, 0.67 mg/kg/d", "value": 0.054, "unit": "%"}, {"measurement": "Relative uterus weight, Mean", "setting": "ovariectomized rats [2]; 4 weeks, 1.77 mg/kg/d", "value": 0.063, "unit": "%"}, {"measurement": "Relative uterus weight, Mean", "setting": "ovariectomized rats [2]; 4 weeks, 18 mg/kg/d", "value": 0.065, "unit": "%"}, {"measurement": "Body weight at the end (bw4b)", "setting": "[3]; 0.67 mg/kg/d", "value": "323 (11) g"}, {"measurement": "The change in Body weight (bw4b-bw0)", "setting": "[3]; 0.67 mg/kg/d", "value": "53 (7) g"}, {"measurement": "Body weight at the end (bw4b)", "setting": "[3]; 1.77 mg/kg/d", "value": "305 (7) g"}, {"measurement": "The change in Body weight (bw4b-bw0)", "setting": "[3]; 1.77 mg/kg/d", "value": "35 (5) g"}, {"measurement": "Body weight at the end (bw4b)", "setting": "[3]; 18 mg/kg/d", "value": "304 (5) g"}, {"measurement": "The change in Body weight (bw4b-bw0)", "setting": "[3]; 18 mg/kg/d", "value": "33 (4) g"}, {"measurement": "luminal epithelial cell height", "setting": "ovariectomized rats [4]", "value": "weak stimulation of luminal epithelial cell height"}, {"measurement": "effect on the uterus and body weight compared with estradiol in the same vehicle (HP-β-CD)", "setting": "ovariectomized rats [5]; 20 mg/kg/d vs estradiol 4 μg/kg/d, same bone effective dose", "value": "much lower effect on the uterus and body weight than estradiol at the same bone effective dose"}, {"measurement": "Relative uterus weight, Mean", "setting": "ovariectomized rats [5]; [8]", "value": 0.067}, {"measurement": "Relative uterus weight, Median", "setting": "ovariectomized rats [5]; [8]", "value": 0.067}, {"measurement": "Body weight at The end (bw4b)", "setting": "[6]", "value": "289(6) g"}, {"measurement": "The change in Body weight (bw4b-bw0)", "setting": "[6]", "value": "24(2) g"}]}]}
